Assay results: ChEMBL document CHEMBL1145080, “Synthesis and cyclooxygenase-2 inhibiting property of 1,5-diarylpyrazoles with substituted benzenesulfonamide moiety as pharmacophore: Preparation of sodium salt for injectable formulation” (J Med Chem, 2003)
Calls of active or inactive are those of the source. No cut-off for these calls is given here.

What was measured:
[1] = Pharmacokinetic parameter Tmax was determined in male Wistar rat after 100 mg/kg oral dose of the compound; format: ADME, organism-based; set-up: dose 100 mg/kg, route oral; details: in vivo
[2] = target: T1, Prostaglandin G/H synthase 1 (Ovis aries) (UniProt P05979); assay: In vitro inhibition of Prostaglandin G/H synthase 1 (from ram seminal vesicles) at a concentration of […]
T1 sequence (whole entry): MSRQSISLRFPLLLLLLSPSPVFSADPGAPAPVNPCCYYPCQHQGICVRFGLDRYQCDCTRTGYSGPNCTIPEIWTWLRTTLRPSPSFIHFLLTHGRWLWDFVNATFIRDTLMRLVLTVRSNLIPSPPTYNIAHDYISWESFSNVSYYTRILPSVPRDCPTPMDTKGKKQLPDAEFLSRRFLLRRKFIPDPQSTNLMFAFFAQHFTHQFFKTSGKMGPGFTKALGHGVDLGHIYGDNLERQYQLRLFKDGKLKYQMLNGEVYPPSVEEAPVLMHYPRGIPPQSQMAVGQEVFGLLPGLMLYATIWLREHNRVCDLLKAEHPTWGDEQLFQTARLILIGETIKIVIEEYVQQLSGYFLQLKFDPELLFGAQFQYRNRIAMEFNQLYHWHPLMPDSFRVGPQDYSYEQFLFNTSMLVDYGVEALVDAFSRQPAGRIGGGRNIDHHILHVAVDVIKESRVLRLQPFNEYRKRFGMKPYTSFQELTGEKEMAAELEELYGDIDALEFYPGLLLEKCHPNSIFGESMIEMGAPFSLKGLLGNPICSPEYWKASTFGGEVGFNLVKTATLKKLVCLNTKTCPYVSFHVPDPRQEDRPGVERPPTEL

[3] = Partition coefficient (logP); format: physicochemical; details: octanol/water
[4] = Pharmacokinetic parameter AUC(area under curve) was determined in male Wistar rat after 100 mg/kg oral dose of the compound; format: ADME, organism-based; set-up: dose 100 mg/kg, route oral; details: in vivo
Rattus norvegicus [5] = assay: Evaluated in vivo for antiinflammatory activity at 30 mg/kg oral dose in the carrageenan-induced rat paw edema (male Wistar rat); format: functional
[6] = target: T2, Prostaglandin G/H synthase 1 (Ovis aries, UniProt P05979)
T2 sequence (P05979 whole entry): T1 sequence (whole entry)
Description: In vitro inhibition against Prostaglandin G/H synthase 1 from ram seminal vesicles

[7] = Pharmacokinetic parameter Cmax was determined in male Wistar rat after 100 mg/kg oral dose of the compound; format: ADME, organism-based; set-up: dose 100 mg/kg, route oral; details: in vivo
Rattus norvegicus [8] = assay: Evaluated in vivo for antiinflammatory activity at 30 mg/kg oral dose in the carrageenan-induced rat paw edema (male Wistar rat); Not active; format: functional, organism-based; set-up: dose 30 mg/kg
Rattus norvegicus [9] = assay: Evaluated in vivo for oral dose required to produce antiinflammatory activity in the rat paw edema assay (male Wistar rat); format: functional

Compound	inhibition [2] [%]	inhibition in vivo at 30 mg/kg (Rattus norvegicus [5]) [%]	other results
CCC(=O)NS(=O)(=O)c1ccc(-n2nc(C(F)(F)F)cc2-c2ccc(SC)cc2)c(F)c1		37	
CCCC(=O)[N-]S(=O)(=O)c1ccc(-n2nc(C(F)(F)F)cc2-c2ccc(C)cc2)cc1.[Na+]	2	63	ED50 (Rattus norvegicus [9]): 6.69 mg/kg
CC(=O)NS(=O)(=O)c1ccc(-n2nc(C(F)(F)F)cc2-c2ccc(C)cc2)cc1	10	27	
CCC(=O)NS(=O)(=O)c1ccc(-n2nc(C(F)(F)F)cc2-c2ccc(F)cc2)c(F)c1	0	38	
CCCC(=O)NS(=O)(=O)c1ccc(-n2nc(C(F)(F)F)cc2-c2ccc(SC)cc2)c(F)c1	34	40	
CCCC(=O)NS(=O)(=O)c1ccc(-n2nc(C(F)(F)F)cc2-c2ccc(F)cc2)c(F)c1	0	22	
CC(=O)NS(=O)(=O)c1ccc(-n2nc(C(F)(F)F)cc2-c2ccc(F)cc2)c(F)c1	26	44	
CS(=O)(=O)c1ccc(C2=C(c3ccccc3)C(=O)OC2)cc1 [ROFECOXIB]		37	Tmax [1]: 3 h; AUC [4]: 57900 ng·h/mL; Cmax [7]: 5610 ng/mL
CCC(=O)NS(=O)(=O)c1ccc(-n2nc(C(F)(F)F)cc2-c2ccc(C)cc2)cc1	0	30	
Cc1ccc(-c2cc(C(F)(F)F)nn2-c2ccc(S(N)(=O)=O)cc2)cc1 [CELECOXIB]		49	ED50 (Rattus norvegicus [9]): 7.9 mg/kg; Tmax [1]: 3.25 h; logP [3]: 3.01; AUC [4]: 23200 ng·h/mL; Cmax [7]: 2470 ng/mL
COc1ccc2c(c1)c(CC(=O)O)c(C)n2C(=O)c1ccc(Cl)cc1	100		
CCC(=O)[N-]S(=O)(=O)c1ccc(-c2c(-c3ccccc3)noc2C)cc1.[Na+] [PARECOXIB SODIUM]			ED50 (Rattus norvegicus [9]): 5 mg/kg

Continued, in another order:

inhibition [2] [%]	Compound	inhibition in vivo at 30 mg/kg (Rattus norvegicus [5]) [%]	other results
29	CSc1ccc(-c2cc(C(F)(F)F)nn2-c2ccc(S(N)(=O)=O)cc2F)cc1	33	Tmax [1]: 1.26 h; logP [3]: 3.81; AUC [4]: 6650 ng·h/mL; IC50 [6]: 24.3 µM; Cmax [7]: 3210 ng/mL
16	COc1ccc(-c2cc(C(F)(F)F)nn2-c2ccc(S(=O)(=O)NC(=O)C(C)(C)C)cc2F)cc1		inhibition (Rattus norvegicus [8]): inactive
0	COc1ccc(-c2cc(C(F)(F)F)nn2-c2ccc(S(N)(=O)=O)c(F)c2)cc1	52	ED30 (Rattus norvegicus [9]): 1 mg/kg; ED50 (Rattus norvegicus [9]): 12.7 mg/kg; IC50 [6]: > 170 µM
18	CCC(=O)[N-]S(=O)(=O)c1ccc(-n2nc(C(F)(F)F)cc2-c2ccc(OC)cc2)c(F)c1.[Na+]	78	ED50 (Rattus norvegicus [9]): 6 mg/kg
32	CCCC(=O)NS(=O)(=O)c1ccc(-n2nc(C(F)(F)F)cc2-c2ccc(OC)cc2)c(F)c1	42	
75	COc1ccc(-c2cc(C(F)(F)F)nn2-c2ccc(S(N)(=O)=O)c(C)c2)cc1		
13	COc1ccc(-c2cc(C(F)(F)F)nn2-c2ccc(S(N)(=O)=O)cc2F)cc1	26	Tmax [1]: 7.5 h; logP [3]: 3.14; AUC [4]: 46400 ng·h/mL; IC50 [6]: > 30 µM; Cmax [7]: 3300 ng/mL
